# Assay: recombinant barcode read abundance after kanamycin selection (control-corrected) (log10(CPM+1)); higher = more efficient recombination; sequences stand for … in AGTGCAGAGAAAATCGGCCAGTTTTCTCTGCCTGCAGTCCGCATGCCGT…AGATTTATGCAGCGGACTGCCTTTCTCCCAAAGTGATAAACCGGACAGTATCATGGACCGGTTTTCCCGGTAATCCGTATTTGCAAGGTTGGTTTCACT; site = the 11-nt target
# How it was run: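 Reported as log10(CPM+1), each value stands for recombination efficiency. That efficiency is the averaged, control-corrected counts per million of barcodes found at recombinant junctions. Cells from a pooled E. coli library pairing targets with IS621 bridge RNA target-binding loops were plated twice on chloramphenicol/ampicillin LB agar (control) and twice on chloramphenicol/ampicillin/kanamycin with 0.1 mM IPTG.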
# 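Further: IS621 recombinase and bridge RNA in Escherichia coli cells.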
row,Sequence,recombinant barcode read abundance (log10)
1,GTAGTAGCTTGGGTTCTAACCTGTTGCCT (site GTAGTAGCTAG),2.06
2,GTAGTAGCTTGGGTTCTAACCTGTTGCCT (site GTAGTATCTAG),0.492
3,GTAGTATCTTGGGTTCTAACCTGTTGCCT (site GTAGTAACTAG),0.0297
4,GTAGTATCTTGGGTTCTAACCTGTTGCCT (site GTAGTACCTAG),0.115
5,GTAGTATCTTGGGTTCTAACCTGTTGCCT (site GTAGTAGCTAG),0.104
6,GTAGTATCTTGGGTTCTAACCTGTTGCCT (site GTAGTATCTAG),1.96
7,GTATATACTTGGGTTCTAACCTGTTGCTT (site ACGGGGCCTCG),0.0368
8,GTATATACTTGGGTTCTAACCTGTTGCTT (site GTATATACTAA),0.578
9,GTATCATCTTGGGTTCTAACCTGTTGCCT (site GTATCAACTAG),0.126
10,GTATCATCTTGGGTTCTAACCTGTTGCCT (site GTATCACCTAG),0.942
11,GTATCATCTTGGGTTCTAACCTGTTGCCT (site GTATCAGCTAG),0.0191
12,GTATCATCTTGGGTTCTAACCTGTTGCCT (site GTATCATCTAG),0.52
13,GTATCGTCTTGGGTTCTAACCTGTTGCCT (site GTATCGTCTAG),1.69
14,GTATCGTCTTGGGTTCTAACCTGTTGCCT (site GTATGGTCTAC),0.111
15,GTATCTACTTGGGTTCTAACCTGTTGCCT (site GAATCTACTAG),0
16,GTATCTACTTGGGTTCTAACCTGTTGCCT (site GCATCTACTAG),0.0197
17,GTATCTACTTGGGTTCTAACCTGTTGCCT (site GGATCTACTAG),0.25
18,GTATCTACTTGGGTTCTAACCTGTTGCCT (site GTATCTACTAG),0.069
19,GTATGCCCTTGGGTTCTAACCTGTTGCTA (site GTATCCACTTA),0.273
20,GTATGCCCTTGGGTTCTAACCTGTTGCTA (site GTATGCCCTTA),1.12
21,GTATTAGCTTGGGTTCTAACCTGTTGCCG (site GAATTAGCTCC),0.128
22,GTATTAGCTTGGGTTCTAACCTGTTGCCG (site GTATTAGCTCG),1.44

row,Sequence,recombinant barcode read abundance (log10)
1,GTCAAACCTTGGGTTCTAACCTGTTGCTG (site GTCAAACCTCA),0.974
2,GTCAAACCTTGGGTTCTAACCTGTTGCTG (site GTCAACCCTCA),0.232
3,GTCAAACCTTGGGTTCTAACCTGTTGCTG (site GTCAAGCCTCA),0.0163
4,GTCAAACCTTGGGTTCTAACCTGTTGCTG (site GTCAATCCTCA),0.0782
5,GTCAAGCCTTGGGTTCTAACCTGTTGCTG (site GTCAAACCTCA),0.0753
6,GTCAAGCCTTGGGTTCTAACCTGTTGCTG (site GTCAACCCTCA),0.184
7,GTCAAGCCTTGGGTTCTAACCTGTTGCTG (site GTCAAGCCTCA),1.23
8,GTCAAGCCTTGGGTTCTAACCTGTTGCTG (site GTCAATCCTCA),0.0295
9,GTCAAGTCTTGGGTTCTAACCTGTTGCTC (site CGACTCCCTAC),0.101
10,GTCAAGTCTTGGGTTCTAACCTGTTGCTC (site GTCAAGTCTGA),0.694
11,GTCAATTCTTGGGTTCTAACCTGTTGCCT (site GACACTTCTAG),0.109
12,GTCAATTCTTGGGTTCTAACCTGTTGCCT (site GTCAATTCTAG),0.684
13,GTCACAACTTGGGTTCTAACCTGTTGCCG (site AGGTTTGCTAA),0.056
14,GTCACAACTTGGGTTCTAACCTGTTGCCG (site GTCACAACTCG),0.339
15,GTCACAGCTTGGGTTCTAACCTGTTGCCT (site GTCAAAGCTTG),0.0492
16,GTCACAGCTTGGGTTCTAACCTGTTGCCT (site GTCACAGCTAG),1.23
17,GTCAGATCTTGGGTTCTAACCTGTTGCTT (site GTCAGATCTAA),0.398
18,GTCAGATCTTGGGTTCTAACCTGTTGCTT (site TCGTTCGCTCG),0.0896
19,GTCAGGGCTTGGGTTCTAACCTGTTGCCT (site GTCAGGGCTAG),0.275
20,GTCAGGGCTTGGGTTCTAACCTGTTGCCT (site GTCATGGCTAG),0.197
21,GTCATGCCTTGGGTTCTAACCTGTTGCGT (site GTCATGCCTAC),1.58
22,GTCATGCCTTGGGTTCTAACCTGTTGCGT (site GTCTTCCCTAC),0.125

row,Sequence,recombinant barcode read abundance (log10)
1,GTCATGTCTTGGGTTCTAACCTGTTGCTG (site ACAGGTCCTTC),0.0358
2,GTCATGTCTTGGGTTCTAACCTGTTGCTG (site GTCATGTCTCA),1.5
3,GTCCAGCCTTGGGTTCTAACCTGTTGCAT (site CTCTAGCCTAT),0.0778
4,GTCCAGCCTTGGGTTCTAACCTGTTGCAT (site GTCCAGCCTAT),1.98
5,GTCCCTCCTTGGGTTCTAACCTGTTGCAT (site GTCCCTCCTAA),0.746
6,GTCCCTCCTTGGGTTCTAACCTGTTGCAT (site GTCCCTCCTAC),0.405
7,GTCCCTCCTTGGGTTCTAACCTGTTGCAT (site GTCCCTCCTAG),0.16
8,GTCCCTCCTTGGGTTCTAACCTGTTGCAT (site GTCCCTCCTAT),1.96
9,GTCCCTCCTTGGGTTCTAACCTGTTGCTT (site GTCCCTCCTAA),0.94
10,GTCCCTCCTTGGGTTCTAACCTGTTGCTT (site GTCCCTCCTAC),0.104
11,GTCCCTCCTTGGGTTCTAACCTGTTGCTT (site GTCCCTCCTAG),0.201
12,GTCCCTCCTTGGGTTCTAACCTGTTGCTT (site GTCCCTCCTAT),0.453
13,GTCCGTCCTTGGGTTCTAACCTGTTGCAT (site GTCCGTCCTAA),0.178
14,GTCCGTCCTTGGGTTCTAACCTGTTGCAT (site GTCCGTCCTAC),0.688
15,GTCCGTCCTTGGGTTCTAACCTGTTGCAT (site GTCCGTCCTAG),0.129
16,GTCCGTCCTTGGGTTCTAACCTGTTGCAT (site GTCCGTCCTAT),1.77
17,GTCCTAACTTGGGTTCTAACCTGTTGCAC (site GTCCTAACTGT),2.08
18,GTCCTAACTTGGGTTCTAACCTGTTGCAC (site GTCCTACCTTT),0.0749
19,GTCCTACCTTGGGTTCTAACCTGTTGCCT (site GTCATACCTAG),0.0144
20,GTCCTACCTTGGGTTCTAACCTGTTGCCT (site GTCCTACCTAG),1.54
21,GTCCTACCTTGGGTTCTAACCTGTTGCCT (site GTCGTACCTAG),0.503
22,GTCCTACCTTGGGTTCTAACCTGTTGCCT (site GTCTTACCTAG),0.588

row,Sequence,recombinant barcode read abundance (log10)
1,GTCGACACTTGGGTTCTAACCTGTTGCCT (site GTCGACACTAG),1.5
2,GTCGACACTTGGGTTCTAACCTGTTGCCT (site GTCGAGTCTAG),0.126
3,GTCGACGCTTGGGTTCTAACCTGTTGCCT (site GTCGACCCTAG),0.158
4,GTCGACGCTTGGGTTCTAACCTGTTGCCT (site GTCGACGCTAG),0.635
5,GTCGCCACTTGGGTTCTAACCTGTTGCCT (site GTAGCCACTAG),0.239
6,GTCGCCACTTGGGTTCTAACCTGTTGCCT (site GTCGCCACTAG),0.0549
7,GTCGCCACTTGGGTTCTAACCTGTTGCCT (site GTGGCCACTAG),0.159
8,GTCGCCACTTGGGTTCTAACCTGTTGCCT (site GTTGCCACTAG),0.196
9,GTCGCGGCTTGGGTTCTAACCTGTTGCCT (site GTCGCGACTAG),0.454
10,GTCGCGGCTTGGGTTCTAACCTGTTGCCT (site GTCGCGCCTAG),0.182
11,GTCGCGGCTTGGGTTCTAACCTGTTGCCT (site GTCGCGGCTAG),0.418
12,GTCGCGGCTTGGGTTCTAACCTGTTGCCT (site GTCGCGTCTAG),0.324
13,GTCGCGTCTTGGGTTCTAACCTGTTGCCT (site GTCGCGACTAG),0.198
14,GTCGCGTCTTGGGTTCTAACCTGTTGCCT (site GTCGCGCCTAG),0.738
15,GTCGCGTCTTGGGTTCTAACCTGTTGCCT (site GTCGCGGCTAG),0.392
16,GTCGCGTCTTGGGTTCTAACCTGTTGCCT (site GTCGCGTCTAG),0.328
17,GTCGGAGCTTGGGTTCTAACCTGTTGCCG (site GTCGGAGCTCA),0.0109
18,GTCGGAGCTTGGGTTCTAACCTGTTGCCG (site GTCGGAGCTCC),0.152
19,GTCGGAGCTTGGGTTCTAACCTGTTGCCG (site GTCGGAGCTCG),0.218
20,GTCGGAGCTTGGGTTCTAACCTGTTGCCG (site GTCGGAGCTCT),0.435
